Series [1] can be described thus: Tolerability in Sprague-Dawley rats, kidney function, urine total protein to creatinine ratio (Example 20). The following applies: male Sprague-Dawley rats, 50 mg/kg subcutaneously weekly for 6 weeks (total 7 doses).
Description: Male Sprague-Dawley rats were maintained on a 12-hour light/dark cycle and fed ad libitum with Purina normal rat chow. Groups of 4 Sprague-Dawley rats each were weekly injected subcutaneously with 50 mg/kg of Ionis oligonucleotide for 6 weeks (total 7 doses). Forty-eight hours after the last dose, the rats were euthanized; and organs, urine and plasma were harvested for further analysis.
To evaluate the effect of Ionis oligonucleotides on kidney function, urinary levels of total protein and creatinine were measured using an automated clinical chemistry analyzer (Hitachi Olympus AU400c, Melville, N.Y.).
The nature of series [2]: Tolerability in CD-1 mice, plasma chemistry markers (Example 16). The class given is in vivo. The settings on record: male CD-1 mice, 50 mg/kg s.c. twice a week for four weeks (8 treatments), day 27. How it is done: (§1) CD-1 mice were treated with modified oligonucleotides selected from studies described above and evaluated for changes in the levels of various plasma chemistry markers.
(§2) Groups of four male CD-1 mice at 4-5 weeks of age (obtained from Charles River) were injected subcutaneously twice a week for four weeks (for a total of 8 treatments) with 50 mg/kg of modified oligonucleotides. One group of male CD-1 mice was injected with PBS. Mice were euthanized on day 27 post start of treatment (24 hrs following the final administration).

Series [3] in a line: Tolerability in CD-1 mice, body and organ weights (Example 16). The class given is in vivo. The following applies: male CD-1 mice, 50 mg/kg s.c. twice a week for four weeks (8 treatments), end of study (day 27). The protocol:
as §2
(§3) Body weights of CD-1 mice were measured at the end of the study, and the average body weight for each group is presented in the table below. Modified oligonucleotides that caused any changes in organ weights outside the expected range for modified oligonucleotides were excluded from further studies.

Series [4] deals with Yap1 mRNA. Nature of the series: Dose-dependent inhibition of human Yap1 in SNU-449 cells (Example 9, RTS36584). It counts as cell-based. The settings on record: free uptake; for % UTC (Yap1 mRNA): approximately 48 hours. The gist of the method: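 SNU-449 cells (10,000/well) took up modified oligonucleotides by free uptake at a range of doses for about 48 h. Yap1 mRNA was quantified with primer-probe set RTS36584, normalised to RIBOGREEN total RNA and expressed as % untreated control; IC50 from linear regression on log/linear plot.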

A short description of series [5]: Tolerability in Sprague-Dawley rats, body and organ weights (Example 20). The settings on record: male Sprague-Dawley rats, 50 mg/kg s.c. weekly for 6 weeks (7 doses); for Kidney weight / Liver weight / Spleen weight: end of study; for body weight: terminal, prior to necropsy. The class given is in vivo. How it is done: Terminal body weight was measured prior to necropsy. Ionis oligonucleotides that caused any changes in organ weights outside the expected range for modified oligonucleotides were excluded from further studies.

The nature of series [6]: Tolerability in Sprague-Dawley rats, plasma chemistry markers (Example 20). The class given is in vivo. The following applies: male Sprague-Dawley rats, 50 mg/kg s.c. weekly for 6 weeks (7 doses), 48 hours after last dose. How it is done:
Sprague-Dawley rats are a multipurpose model used for safety and efficacy evaluations. The rats were treated with Ionis modified oligonucleotides from the studies described in the Examples above and evaluated for changes in the levels of various plasma chemistry markers.

The nature of series [7]: Tolerability in CD-1 mice, body and organ weights (Example 18). The class given is in vivo. The settings on record: male CD-1 mice, 50 mg/kg s.c. twice a week (total of 9 treatments), end of study (day 34). The protocol: (§4) Groups of four male CD-1 mice at 5-6 weeks of age (obtained from Charles River) were injected subcutaneously twice a week for four weeks (for a total of 9 treatments) with 50 mg/kg of modified oligonucleotides. One group of male CD-1 mice was injected with PBS. Mice were euthanized on day 34 post start of treatment (24 hours following the final administration).
as §3

The test system of series [8] is Yap1 mRNA. The experiment in a line: Inhibition of human Yap1 mRNA in SNU449 hepatocellular carcinoma xenograft tumors (Example 26). It counts as in vivo. The settings on record: SNU449 xenografts in NSG mice, 50 mg/kg twice weekly for five days, relative to PBS treated animals. The protocol:
A SNU449 hepatocellular carcinoma xenograft tumor model was used to evaluate activity of modified oligonucleotides targeted to human Yap1. Ten million SNU449 cells in 30% matrigel were implanted subcutaneously into the flanks of female NOD Cg-Prkdcscid ll2rgtm1Wjl/SzJ (NSG) mice (from Jackson Laboratory) at 4-6 weeks of age. When tumors reached an average volume of 100 mm^3, approximately two weeks post-implantation, groups of four mice each were administered at 50 mg/kg twice weekly with modified oligonucleotides for five days. Tumors were collected and tested for Yap1 mRNA knockdown by RT-qPCR. Yap1 mRNA levels were measured as previously described using the Human Yap1 primer-probe set RTS4814. Yap1 mRNA levels were normalized to actin-beta content, as measured by primer probe set RTS5002. Results are presented in the tables below as percent control of the amount of Yap1 mRNA relative to PBS treated animals (% control).
(In general: Xenograft models place foreign cells or tissue in a host animal.)

A short description of series [9]: Tolerability in CD-1 mice, plasma chemistry markers (Example 18). The class given is in vivo. The following applies: male CD-1 mice, 50 mg/kg s.c. twice a week (total of 9 treatments), day 34. How it is done:
as §1, §4

Series [10] has as its system Yap1 mRNA. The experiment in a line: Dose-dependent inhibition of human Yap1 in A-431 cells (Example 8, 10,000 cells per well, RTS4814). The following applies: free uptake, approximately 48 hours, RTS4814; for Yap1 mRNA, % UTC: A-431 cells, 10,000 cells per well. It counts as cell-based. The gist of the method: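 A-431 cells (10,000/well) dosed with modified oligonucleotides by free uptake; Yap1 mRNA measured ~48 h later with primer-probe set RTS4814, normalized to total RNA (RIBOGREEN). Values are % of untreated control; IC50 from linear regression on log/linear plot.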

Series [11] in a line: Tolerability in CD-1 mice, plasma chemistry markers (Example 17). The class given is in vivo. The settings on record: male CD-1 mice, 50 mg/kg s.c. twice a week for four weeks (8 treatments), day 27. The protocol: as §1, §2
Series [12] is described as follows: Tolerability in CD-1 mice, body and organ weights (Example 17). The class given is in vivo. The following applies: male CD-1 mice, 50 mg/kg s.c. twice a week for four weeks (8 treatments), end of study (day 27). The protocol: as §2, §3

The results in this text go back to US11214803B2, “Modulators of YAP1 expression” (Ionis Pharmaceuticals, Inc., priority 2019, dated 2022).

pIC50: −log10 of the molar value. Strand notation (5' to 3'): a small letter for the sugar, then the base; units joined by * are phosphorothioate-linked, units joined directly phosphodiester-linked; [ ] holds rarer units or linkages, { } end groups; capitals alone tell only the bases. k = constrained ethyl (cEt); [5mC] = 5-methylcytosine; d = 2'-deoxy (DNA) Where only a bound is given, the exact number is not on record here.

As a reminder, the pIC50 is −log10 of the IC50, conventionally taken in molar units. Read a low pIC50 as a large IC50. For “1076187 (kG*kA*kT*dT*dT*dA*dG*dG*dA*dT*dG*d[5mC]*dA*kT*kG*kG; antisense) [compound 1076187]”, in [1], the “URINE P/C ratio (total protein to creatinine ratio)” value (from here on “URINE P/C ratio”) was determined as 5. In [2], this substance gave an ALT of 57 U/L, an AST of 90 U/L, an Albumin of 2.3 g/dL and a BUN of 20 mg/dL. In [2], this substance had a TBIL of 0.18 mg/dL. Moreover, in series [3], the Kidney weight amounted to 0.56 g, the Liver weight is reported as 1.95 g, the Spleen weight is 0.14 g and the body weight came to 34 g. Besides, the “% UTC (Yap1 mRNA)” value in series [4] (31.3 nM) turned out to be 68 % UTC. Besides, in series [4] (125.0 nM), the “% UTC (Yap1 mRNA)” value was 46 % UTC. Also, in series [4] (500.0 nM), the “% UTC (Yap1 mRNA)” value came to 24 % UTC. Further, the “% UTC (Yap1 mRNA)” value in series [4] (2000.00 nM) amounted to 12 % UTC. In series [4] (linear regression on a log/linear plot), this substance showed a pIC50 of 7.00. Also, in series [5], the Kidney weight was found to be 3.0 g, the Liver weight was 17 g, the Spleen weight is 1.7 g and the body weight turned out to be 344 g. In series [6], this substance registered an ALB of 2.91 g/dL, an ALT of 54 U/L, an AST of 113 U/L and a BUN of 21 mg/dL. Further, the TBIL in [6] was determined as 0.10 mg/dL.
In [7], “1074755 (k[5mC]*kA*k[5mC]*dT*dT*dT*dT*dA*d[5mC]*dA*dT*dT*dA*kG*kG*kA; antisense) [compound 1074755]” had a Kidney weight of 0.61 g, a Liver weight of 2.27 g, a Spleen weight of 0.19 g and a body weight of 39 g. In addition, in series [1], the “URINE P/C ratio” value is 5. In addition, the “Yap1 mRNA in tumors, % control” value in series [8] amounted to 70 % control. In series [9], this substance had an ALT of 88 U/L, an AST of 104 U/L, a BUN of 22 mg/dL and a TBIL of 0.21 mg/dL. In addition, the “Yap1 mRNA, % UTC” value in series [10] (31.3 nM) is listed as 28 % UTC. For the same substance, in [10] (125.0 nM), the “Yap1 mRNA, % UTC” value amounted to 9 % UTC. Moreover, the “Yap1 mRNA, % UTC” value in series [10] (500.0 nM) is 5 % UTC. The “Yap1 mRNA, % UTC” value in series [10] (2000.00 nM) came out at 3 % UTC. Moreover, in [10] (A-431 cells, linear regression on log/linear plot), the pIC50 is > 7.70. In series [5], this substance yielded a Kidney weight of 3.3 g, a Liver weight of 16 g, a Spleen weight of 2.1 g and a body weight of 357 g. In series [6], this substance yielded an ALB of 2.99 g/dL, an ALT of 57 U/L, an AST of 97 U/L and a BUN of 29 mg/dL. Further, the TBIL in [6] came out at 0.12 mg/dL.
Take “1097224 (k[5mC]*kT*k[5mC]*dT*dT*dA*dT*dA*dT*dG*dG*dT*dT*kT*kT*kG; antisense) [compound 1097224]”: in series [11], the ALT came out at 39 U/L, the AST was 78 U/L, the BUN turned out to be 21 mg/dL and the TBIL stood at 0.09 mg/dL. In addition, the “URINE P/C ratio” value in series [1] is listed as 87. In [12], this substance gave a Kidney weight of 0.54 g, a Liver weight of 1.93 g, a Spleen weight of 0.16 g and a body weight of 37 g. In addition, in series [5], the Kidney weight was 4.5 g, the Liver weight stood at 13 g, the Spleen weight is 1.4 g and the body weight worked out at 316 g. In series [6], this substance yielded an ALB of 1.61 g/dL, an ALT of 31 U/L, an AST of 51 U/L and a BUN of 86 mg/dL. The substance further displayed a TBIL in series [6] of 0.07 mg/dL.
